The target of this test is T1, EGFR (T790M/L858R) (Homo sapiens, UniProt P00533, L858R/T790M).
T1 construct: purchased Carna Biosciences, Inc
Put plainly: EGFR (T790M/L858R) kinase inhibitory activity. The format is biochemical. The following applies: summary for EGFR (L858R), (d746-750), (T790M/L858R), (d746-750/T790M); for the comparative compound all EGFR kinases tested. Here is the method: The inhibitory activities of the compounds of the present invention against EGFR (T790M/L858R) kinase activity were measured.
Among the materials of the inhibitory activity measurement, the substrate peptide and the kinase protein were obtained as follows. A peptide with biotinylated N-terminus (biotin-EEPLYWSFPAKKK) was synthesized with reference to FL-Peptide 22, a reagent for LabChip® series of PerkinElmer, Inc. For the kinase protein, a purified recombinant human EGFR (T790M/L858R) protein of Carna Biosciences, Inc. was purchased.
The inhibitory activity measurement was performed as follows. The compounds of the present invention were individually dissolved in dimethyl sulfoxide (DMSO), and serial dilutions of these compounds were prepared using DMSO. Subsequently, a solution containing the substrate peptide (final concentration: 250 nM), magnesium chloride (final concentration: 10 mM), manganese chloride (final concentration: 10 mM), and ATP (final concentration: 1 μM) in a buffer solution for kinase reaction (Carna Biosciences, Inc.) was mixed with the dilutions of the compounds (final concentration of DMSO upon kinase reaction: 2.5%) or DMSO (final concentration: 2.5%). EGFR (T790M/L858R) protein was further added thereto, and the mixtures were incubated at 25° C. for 120 minutes to carry out a kinase reaction. EDTA was added thereto to a final concentration of 24 mM to thereby terminate the reaction. A phosphorylated thyrosine detection solution containing europium (Eu)-labeled anti-phosphorylated tyrosine antibody PT66 (PerkinElmer, Inc.) and SureLight APC-SA (PerkinElmer, Inc.) was added to the reaction mixtures, and the mixtures were allowed to stand at room temperature for 2 hours or more. For the background, a sample to which EDTA was added before addition of EGFR (T790M/L858R) protein was incubated at 25° C. for 120 minutes, using DMSO instead of the DMSO solution of the compound. The detection solution was also added to this sample, and the mixture was allowed to stand for 2 hours or more. Finally, for all of the test samples, the amount of fluorescence at the time of irradiation of excitation light having a wavelength of 337 nm was measured at dual wavelengths of 620 nm and 665 nm by PHERAstar FS (BMG LABTECH), and a ratio of the fluorescence amounts at the two wavelengths was obtained as data.
Based on the above rates, phosphorylation inhibition rates (%) were calculated for the samples to which various concentrations of the compound solutions were added. Finally, the obtained reaction inhibition rates (%) at the respective concentrations were plotted for each compound, and the IC50 value (nM), which is a compound concentration at which phosphorylation by EGFR (T790M/L858R) is inhibited by 50%, was determined using XLfit curve-fitting software (IDBS).

Structures are written as SMILES.

T1 sequence (P00533 25-1210 T790M/L858R): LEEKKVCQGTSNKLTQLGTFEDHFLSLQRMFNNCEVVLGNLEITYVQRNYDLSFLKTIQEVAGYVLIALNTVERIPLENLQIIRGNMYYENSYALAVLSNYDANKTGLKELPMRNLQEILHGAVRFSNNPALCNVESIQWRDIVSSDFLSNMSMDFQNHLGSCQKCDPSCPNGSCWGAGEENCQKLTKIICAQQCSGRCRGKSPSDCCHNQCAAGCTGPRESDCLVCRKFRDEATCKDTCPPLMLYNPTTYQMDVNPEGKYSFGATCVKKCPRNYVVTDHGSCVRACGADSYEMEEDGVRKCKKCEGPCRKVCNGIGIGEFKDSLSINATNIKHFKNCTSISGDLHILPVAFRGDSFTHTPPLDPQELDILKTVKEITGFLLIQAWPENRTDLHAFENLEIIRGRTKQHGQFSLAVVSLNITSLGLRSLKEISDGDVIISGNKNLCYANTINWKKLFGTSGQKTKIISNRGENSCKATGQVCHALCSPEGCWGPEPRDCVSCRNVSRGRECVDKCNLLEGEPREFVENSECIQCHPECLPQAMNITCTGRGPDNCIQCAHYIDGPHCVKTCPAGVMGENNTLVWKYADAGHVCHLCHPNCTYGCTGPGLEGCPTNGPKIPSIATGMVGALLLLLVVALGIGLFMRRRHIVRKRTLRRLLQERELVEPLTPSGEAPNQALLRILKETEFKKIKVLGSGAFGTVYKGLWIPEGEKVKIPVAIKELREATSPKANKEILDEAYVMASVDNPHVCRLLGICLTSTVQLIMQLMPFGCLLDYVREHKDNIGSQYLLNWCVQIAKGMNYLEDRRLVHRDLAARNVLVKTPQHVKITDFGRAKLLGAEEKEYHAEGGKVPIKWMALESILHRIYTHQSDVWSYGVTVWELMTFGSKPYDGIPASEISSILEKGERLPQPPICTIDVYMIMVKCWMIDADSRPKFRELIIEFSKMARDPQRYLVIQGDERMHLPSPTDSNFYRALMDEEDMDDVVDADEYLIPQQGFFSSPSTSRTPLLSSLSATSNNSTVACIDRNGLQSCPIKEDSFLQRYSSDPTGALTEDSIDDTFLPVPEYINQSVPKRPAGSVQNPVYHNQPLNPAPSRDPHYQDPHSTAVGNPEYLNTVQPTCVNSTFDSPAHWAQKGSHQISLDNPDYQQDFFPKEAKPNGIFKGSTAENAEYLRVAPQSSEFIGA

As to `Nc1ncnc2c1c(-c1cccc(NC(=O)c3ccccc3)c1)c1n2CCCC1` [Comparative Example 1, N-(3-(4-amino-6,7,8,9-tetrahydropyrimido[5,4-b]indolizin-5-yl)phenyl)benzamide, reference compound], the “inhibitory activity against EGFR kinases (in words)” value was “almost no inhibitory activity”.

The values above are taken from patent US9758526B2, “Quinoline-substituted compound” (TAIHO PHARMACEUTICAL CO., LTD., priority 2013, dated 2017).
